Read-outs that look alike come from different tables or passages of the source. Blank lines part the entries; values can stand above or below the molecule they belong to.
Assays:
GammaD12 [1] = assay: MTS cell viability assay; type: cell-based, mouse
Description: (§1) Three human and eleven murine cancer cell lines were used. The human NSCLC cell line A549 (ACC 107) and the human colorectal carcinoma cell line CaCo2 (ACC 169) were obtained from Deutsche Sammlung von Mikroorganismen und Zellkulturen (DSMZ, Braunschweig, Germany). The human hepatocellular carcinoma cell line HepG2 (HB-8065) was obtained from American Type Culture Collection (Manassas, VA, USA). The 11 murine NSCLC cell lines were established as described recently. Cells were grown in monolayer cultures in DMEM containing 10% foetal calf serum, 4 mmol/l L-glutamine and 2% Penicillin/Streptomycin at 37°C in a humidified atmosphere of 95% air and 5% CO2.
(§2) Cell culture viability was monitored by CellTiter96® AQueous One Solution Cell Proliferation Assay (Promega GmbH, Mannheim, Germany). The cells were seeded in triplicates in 96-well microtitre plates and treated with the dual kinase inhibitors or vehicle (0.2% DMSO). After 24 h or 96 h of treatment the MTS tetrazolium reagent was added to the cells and incubated for 1 h. Absorbance at 490 nm was assayed with a Victor3 Wallac 1420 Multilabel counter (PerkinElmer, Waltham, MA, USA).

BetaD5 [2] = assay: MTS cell viability assay; type: cell-based, mouse
Description: as §1, §2

A2C12 [3] = assay: MTS cell viability assay; type: cell-based, mouse
Description: as §1, §2

GammaA3 [4] = assay: MTS cell viability assay; type: cell-based, mouse
Description: as §1, §2

CaCo2 [5] = assay: MTS cell viability assay; type: cell-based, human
Description: as §1, §2

HepG2 [6] = assay: MTS cell viability assay; type: cell-based, human
Description: as §1, §2

A549 [7] = assay: MTS cell viability assay; type: cell-based, human
Description: as §1, §2

GammaD12 [8] = assay: Cell cycle analysis by flow cytometry; type: cell-based, mouse; settings: IC50 concentration, 96 h
Description: (§3) CycleTEST™ PLUS DNA Reagent Kit (Becton Dickinson GmbH, Heidelberg, Germany) for cell cycle analysis was used, according to the instructions of the manufacturer. Briefly, the cells were harvested with trypsin, washed with PBS, and resuspended in CycleTEST Buffer. The cells were centrifuged and resuspended in solution A. After incubation for 10 min at room temperature, solution B was added and incubated. After adding solution C, the samples were incubated at 4°C protected from light. The samples were stored on ice and protected from light until analysis by FACScan flow cytometer (Becton Dickinson GmbH, Heidelberg, Germany).

BetaD5 [9] = assay: Cell cycle analysis by flow cytometry; type: cell-based, mouse; settings: IC50 concentration, 96 h
Description: as §3

A2C12 [10] = assay: Cell cycle analysis by flow cytometry; type: cell-based, mouse; settings: IC50 concentration, 96 h
Description: as §3

GammaA3 [11] = assay: Cell cycle analysis by flow cytometry; type: cell-based, mouse; settings: IC50 concentration, 96 h
Description: as §3

CaCo2 [12] = assay: Cell cycle analysis by flow cytometry; type: cell-based, human; settings: IC50 concentration, 96 h
Description: as §3

HepG2 [13] = assay: Cell cycle analysis by flow cytometry; type: cell-based, human; settings: IC50 concentration, 96 h
Description: as §3

A549 [14] = assay: Cell cycle analysis by flow cytometry; type: cell-based, human; settings: IC50 concentration, 96 h
Description: as §3

[15] = Mus musculus, 24 h, read-out: Calculated IC50 after single treatment for 24 h
[16] = Mus musculus, 96 h, read-out: Calculated IC50 after daily treatment for 96 h
[17] = 96 h, read-out: Calculated IC50 after daily treatment for 96 h
[18] = MTS, 24 h, read-out: Calculated IC50 after single treatment for 24 h
[19] = MTS, 96 h, read-out: Calculated IC50 after daily treatment for 96 h
[20] = 24 h, read-out: Calculated IC50 after single treatment for 24 h

IC50 (CaCo2 [5]; Homo sapiens, Caco-2, 24 h, read-out: Calculated IC50 after single treatment for 24 h): > 100 µM
IC50 (CaCo2 [5]; Homo sapiens, Caco-2, 96 h, read-out: Calculated IC50 after daily treatment for 96 h): 0.44 ± 0.25 µM
IC50 (HepG2 [6]; Homo sapiens, 24 h, read-out: Calculated IC50 after single treatment for 24 h): 26.2 ± 2.8 µM
IC50 (HepG2 [6]; Homo sapiens, 96 h, read-out: Calculated IC50 after daily treatment for 96 h): 5 ± 0.82 µM
IC50 (A549 [7]; [17]): 5.2 ± 2.2 µM
IC50 (A549 [7]; Homo sapiens, A549, 24 h, 24 h, read-out: Calculated IC50 after single treatment for 24 h): 39.8 ± 5.8 µM
IC50 (A549 [7]; Homo sapiens, A549, 96 h, 96 h, read-out: Calculated IC50 after daily treatment for 96 h): 5 µM
Structure (SMILES): Cc1nc(Nc2ncc(C(=O)Nc3c(C)cccc3Cl)s2)cc(N2CCN(CCO)CC2)n1 [Dasatinib, reference compound]
IC50 (GammaD12 [1]; Mus musculus, 96 h, read-out: IC50 (MTS) after treatment for 96 h): 0.8 µM
IC50 (GammaD12 [1]; Mus musculus, MTS, 24 h, read-out: Calculated IC50 after single treatment for 24 h): 2.6 ± 1 µM
IC50 (BetaD5 [2]; [15]): 5.2 ± 0.6 µM
IC50 (BetaD5 [2]; [16]): 0.84 ± 0.05 µM
IC50 (A2C12 [3]; [15]): 9.8 ± 1.5 µM
IC50 (A2C12 [3]; [16]): 10.3 ± 1.6 µM
IC50 (GammaA3 [4]; [15]): 1.18 ± 0.1 µM
IC50 (GammaA3 [4]; [16]): 0.32 ± 0.07 µM

IC50 (CaCo2 [5]; [20]): 56.2 ± 2 µM
IC50 (CaCo2 [5]; [17]): 6.5 ± 0.1 µM
IC50 (HepG2 [6]; [20]): 56.2 ± 2.1 µM
IC50 (HepG2 [6]; [17]): 8.1 ± 2.8 µM
IC50 (A549 [7]; [20]): 25.1 ± 2.6 µM
IC50 (A549 [7]; [17]): 13.6 ± 1.5 µM
Structure (SMILES): CCCCNc1nc(SCC)nc2c1cnn2CC(Cl)c1ccccc1 (stereo not shown) [Si20]
Cells in G1 phase (GammaD12 [8]): 31.4%
Cells in G2 phase (GammaD12 [8]): 9.7%
Cells in S phase (GammaD12 [8]): 58.9%
Cells in G1 phase (BetaD5 [9]): 63.2%
Cells in G2 phase (BetaD5 [9]): 24.2%
Cells in S phase (BetaD5 [9]): 12.6%
Cells in G1 phase (A2C12 [10]): 55.6%
Cells in G2 phase (A2C12 [10]): 11.3%
Cells in S phase (A2C12 [10]): 33.1%
Cells in G1 phase (GammaA3 [11]): 51.9%
Cells in G2 phase (GammaA3 [11]): 17.5%
Cells in S phase (GammaA3 [11]): 30.8%
Cells in G1 phase (CaCo2 [12]): 61.9%
Cells in G2 phase (CaCo2 [12]): 5.2%
Cells in S phase (CaCo2 [12]): 32.9%
Cells in G1 phase (HepG2 [13]): 61.5%
Cells in G2 phase (HepG2 [13]): 7.3%
Cells in S phase (HepG2 [13]): 31.2%
Cells in G1 phase (A549 [14]): 78.9%
Cells in G2 phase (A549 [14]): 4.3%
Cells in S phase (A549 [14]): 16.7%
IC50 (GammaD12 [1]; [18]): 17.1 ± 1.5 µM
IC50 (GammaD12 [1]; [19]): 11.3 ± 1.2 µM
IC50 (BetaD5 [2]; [20]): 27 ± 7.9 µM
IC50 (BetaD5 [2]; [17]): 10.4 µM
IC50 (A2C12 [3]; [20]): 28.1 ± 4.6 µM
IC50 (A2C12 [3]; [17]): 11.3 ± 0.9 µM
IC50 (GammaA3 [4]; [20]): 21.5 ± 2.3 µM
IC50 (GammaA3 [4]; [17]): 15.5 ± 2.3 µM

IC50 (CaCo2 [5]; [20]): > 100 µM
IC50 (CaCo2 [5]; [17]): > 20 µM
IC50 (HepG2 [6]; [20]): > 100 µM
IC50 (HepG2 [6]; [17]): 16.2 ± 6.3 µM
IC50 (A549 [7]; [20]): > 100 µM
IC50 (A549 [7]; [17]): > 20 µM
Structure (SMILES): CCN(CC)c1nc(SC)nc2c1cnn2CC(Cl)c1ccccc1 (stereo not shown) [Si27]
IC50 (GammaD12 [1]; [18]): > 100 µM
IC50 (GammaD12 [1]; [19]): > 20 µM
IC50 (BetaD5 [2]; [20]): > 100 µM
IC50 (BetaD5 [2]; [17]): > 20 µM
IC50 (A2C12 [3]; [20]): > 100 µM
IC50 (A2C12 [3]; [17]): > 20 µM
IC50 (GammaA3 [4]; [20]): > 100 µM
IC50 (GammaA3 [4]; [17]): > 20 µM

Source: paper PMC2994747, “Molecular Characterization of c-Abl/c-Src Kinase Inhibitors Targeted against Murine Tumour Progenitor Cells that Express Stem Cell Markers” (PLoS ONE, 2010)
